According to publication PMC6792352, “Limited Chemical Structural Diversity Found to Modulate Thyroid Hormone Receptor in the Tox21 Chemical Library” (Environmental Health Perspectives, 2019):
Counter-ions that a name gives are not always drawn.

Test: in vitro
Details: rat, gh3-tre-luc cells, AC50 (uM) modified / 1000

SMILES	CC50 at 24 h
O=C1c2ccccc2C(=O)c2cc(O)ccc21 [2-Hydroxyanthraquinone]	> 90 µM
O=C(O)c1cc2cc(Cc3cccnc3)ccc2o1 [Furegrelate sodium]	> 50 µM
C/C(=N\O)c1ccc(OCC(=O)N2CCCCC2)cc1 [Pifoxime]	> 50 µM
CC1=C(Br)C(=O)C(Br)=C/C1=C(/c1ccccc1S(=O)(=O)O)c1cc(Br)c(O)c(Br)c1C [Bromocresol green sodium salt]	44.7 µM
CN(C)c1ccc(SC#N)cc1 [4-(Dimethylamino)phenylthiocyanate]	> 90 µM
C/C=C/C(=O)CCCC [2-Octen-4-one]	> 90 µM
CC(=O)OCC(=O)[C@@]12OC3(CCCC3)O[C@@H]1C[C@H]1[C@@H]3CCC4=CC(=O)C=C[C@]4(C)[C@@]3(F)[C@@H](O)C[C@@]12C [Amcinonide]	> 50 µM
Nc1ccc([N+](=O)[O-])c(N)c1 [4-Nitro-1,3-benzenediamine]	64.4 µM
O=[N+]([O-])c1c(Cl)cc(Cl)cc1Cl [2,4,6-Trichloronitrobenzene]	> 90 µM
COc1cccc(OC)c1C(=O)O [2,6-Dimethoxybenzoic acid]	> 90 µM
Nc1cccc(S(=O)(=O)c2cccc(N)c2)c1 [3,3'-Sulphonyldianiline]	> 90 µM
CC(C#N)(CCC(=O)O)N=NC(C)(C#N)CCC(=O)O (centres unmarked) [4,4'-Diazene-1,2-diylbis(4-cyanopentanoic acid)]	> 90 µM
C[N+](C)(C)CCOP(=O)(O)OP(=O)([O-])OC[C@H]1O[C@@H](n2ccc(N)nc2=O)[C@H](O)[C@@H]1O [Citicoline sodium]	> 50 µM
CO[Si](OC)(OC)OC [Tetramethyl orthosilicate]	81.5 µM
Nc1cccc(Cl)c1 [3-Chloroaniline]	> 90 µM
O=C(O)c1ccccc1[N+](=O)[O-] [2-Nitrobenzoic acid]	> 90 µM
CC(C)(C(=O)c1cccnc1)c1cccnc1 [Metyrapone]	> 20 µM
O=C(c1ccc2c(c1)C(=O)OC2=O)c1ccc2c(c1)C(=O)OC2=O [Benzophenonetetracarboxylic dianhydride]	> 90 µM
CCCCCCCCCCCCOCCOCCOCCOCCOCCOCCOCCOCCOCCO [Polyoxyethylene (9) lauryl ether]	9.84 µM
CCO/C=C1\N=C(c2ccccc2)OC1=O [Oxazolone]	64.5 µM
CC(=O)c1ccc2c(c1)CCCC2 [6-Acetyl-1,2,3,4-tetrahydronaphthalene]	> 90 µM
CN1CCC(Nc2ncc3ncnc(Nc4ccc(F)c(Cl)c4)c3n2)CC1 [Falnidamol dihydrochloride]	11.7 µM
C[C@H]1C[C@H]2[C@@H]3CCC4=CC(=O)C=C[C@]4(C)[C@H]3C(=O)C[C@]2(C)[C@@]1(O)C(=O)CO [Meprednisone]	> 50 µM
C/C=C/C=O [Crotonaldehyde]	> 90 µM
CCCc1cc(C(N)=S)ccn1 [Prothionamide]	> 50 µM
C[C@@H]1C[C@H]2[C@@H]3CCC4=CC(=O)C=C[C@]4(C)[C@@]3(F)[C@@H](O)C[C@]2(C)[C@@]1(O)C(=O)CO [Dexamethasone]	> 90 µM

SMILES	CC50 at 24 h
Cc1cc(-c2ccc(/N=N/c3c(S(=O)(=O)O)cc4cc(S(=O)(=O)O)cc(N)c4c3O)c(C)c2)ccc1/N=N/c1c(S(=O)(=O)O)cc2cc(S(=O)(=O)O)cc(N)c2c1O [C.I. Direct Blue 14]	22.8 µM
O=C(O)c1ccc(Cl)cc1Cl [2,4-Dichlorobenzoic acid]	> 90 µM
N#Cc1cc(I)c(O)c(I)c1 [Ioxynil]	49.1 µM
CCOc1cc(C=O)ccc1O [3-Ethoxy-4-hydroxybenzaldehyde]	> 50 µM
O=[N+]([O-])c1ccc2[nH]ncc2c1 [5-Nitroindazole]	> 90 µM
COc1cc(/C=C/C(=O)N2CCN(CC(=O)N3CCCC3)CC2)cc(OC)c1OC [Cinepazide maleate]	> 50 µM
CN1CCC(O)(c2ccc(F)cc2)C(C(=O)c2ccc(F)cc2)C1 (centres unmarked) [Flazalone]	19.6 µM
O=C(N/N=C/c1ccccc1O)c1ccncc1 [Salinazid]	> 50 µM
CCOC(=O)CC(C)=O [Ethyl acetoacetate]	> 90 µM
c1ccc(C(O[C@@H]2CCCN(CCc3ccc4c(c3)OCO4)C2)c2ccccc2)cc1 [Zamifenacin fumarate]	26.4 µM
C=CCOC(=O)CCCCCC [Prop-2-en-1-yl heptanoate]	> 90 µM
CN1[C@@H]2CCC[C@H]1C[C@@H](NC(=O)c1nn(C)c3ccccc13)C2 [Granisetron hydrochloride]	> 50 µM
CC1(C)[C@H]2CC[C@](C)(C2)[C@H]1O [(1R)-endo-(+)-Fenchyl alcohol]	> 90 µM
N[C@H](C(=O)O)c1ccc(O)cc1 [Oxfenicine]	> 50 µM
CCc1ccc(C(=O)C(C)CN2CCCCC2)cc1 (centres unmarked) [Eperisone hydrochloride]	> 50 µM
CN1CCN(c2c(F)cc3c(=O)c(C(=O)O)cn4c3c2OCN4C)CC1 [Marbofloxacin]	> 50 µM
CC(CN(C)C)C(C)(O)Cc1ccc(Cl)cc1 (centres unmarked) [Clobutinol hydrochloride]	> 50 µM
O=C(O)c1ccncc1 [Isonicotinic acid]	> 90 µM
c1ccc2cc3c(ccc4ccccc43)cc2c1 [Benz(a)anthracene]	> 90 µM
CCCCOc1cc(C(=O)NCCN(CC)CC)c2ccccc2n1 [Dibucaine]	9.45 µM
CCc1ccc(Br)cc1 [1-Bromo-4-ethylbenzene]	> 90 µM
O=C(NCN1CCOCC1)c1cnccn1 [Morphazinamide]	> 50 µM
CCO[Si](C)(OCC)OCC [Triethoxymethylsilane]	> 90 µM
COc1ccc2cc(CCC(C)=O)ccc2c1 [Nabumetone]	> 20 µM
CC(=O)O[C@]1(C(C)=O)CC[C@H]2[C@@H]3C=C(Cl)C4=CC(=O)CC[C@]4(C)[C@H]3CC[C@@]21C [Chlormadinone acetate]	90.1 µM

Same assay, conditions: rat, gh3-tre-luc cells, AC50 (uM) modified / 1000, Tox21_110001=Tox21_110122; viability, 1 nM T3 present, 24 h

SMILES	CC50 at 24 h
CCCC(C)(COC(N)=O)COC(=O)NC(C)C (centres unmarked) [Carisoprodol]	> 50 µM

Same assay, conditions: rat, gh3-tre-luc cells, AC50 (uM) modified / 1000, Tox21_110001=Tox21_112097; viability, 1 nM T3 present, 24 h

SMILES	CC50 at 24 h
Oc1ccccc1-c1ccccc1 [Sodium 2-phenylphenate tetrahydrate]	> 50 µM

Same assay, conditions: rat, gh3-tre-luc cells, AC50 (uM) modified / 1000, Tox21_110001=Tox21_112608; viability, 1 nM T3 present, 24 h

SMILES	CC50 at 24 h
CN1C(=O)CC(=O)N(c2ccccc2)c2cc(Cl)ccc21 [Clobazam]	> 50 µM

Same assay, conditions: rat, gh3-tre-luc cells, AC50 (uM) modified / 1000, Tox21_110001=Tox21_200456; viability, 1 nM T3 present, 24 h

SMILES	CC50 at 24 h
CCCCCCCCCCCCCCCl [1-Chlorotetradecane]	> 90 µM

Same assay, conditions: rat, gh3-tre-luc cells, AC50 (uM) modified / 1000, Tox21_110001=Tox21_200623; viability, 1 nM T3 present, 24 h

SMILES	CC50 at 24 h
CCCC(C)(COC(N)=O)COC(=O)NC(C)C (centres unmarked) [Carisoprodol]	> 90 µM

Same assay, conditions: rat, gh3-tre-luc cells, AC50 (uM) modified / 1000, Tox21_110001=Tox21_200824; viability, 1 nM T3 present, 24 h

SMILES	CC50 at 24 h
C=CCCl [Allyl chloride]	> 100 µM

Same assay, conditions: rat, gh3-tre-luc cells, AC50 (uM) modified / 1000, Tox21_110001=Tox21_201304; viability, 1 nM T3 present, 24 h

SMILES	CC50 at 24 h
CCCCCCCCCCCC#N [Dodecanenitrile]	> 90 µM

Same assay, conditions: rat, gh3-tre-luc cells, AC50 (uM) modified / 1000, Tox21_110001=Tox21_201731; viability, 1 nM T3 present, 24 h

SMILES	CC50 at 24 h
CNC(=O)O/N=C(\SC)C(=O)N(C)C [Oxamyl]	> 100 µM

Same assay, conditions: rat, gh3-tre-luc cells, AC50 (uM) modified / 1000, Tox21_110001=Tox21_201813; viability, 1 nM T3 present, 24 h

SMILES	CC50 at 24 h
CN(C)c1ccccc1 [N,N-Dimethylaniline]	> 90 µM

Same assay, conditions: rat, gh3-tre-luc cells, AC50 (uM) modified / 1000, Tox21_110001=Tox21_202294; viability, 1 nM T3 present, 24 h

SMILES	CC50 at 24 h
CCOP(=S)(OCC)SCn1c(=O)oc2cc(Cl)ccc21 [Phosalone]	> 100 µM

Same assay, conditions: rat, gh3-tre-luc cells, AC50 (uM) modified / 1000, Tox21_110001=Tox21_300036; viability, 1 nM T3 present, 24 h

SMILES	CC50 at 24 h
CN(C)c1ccccc1 [N,N-Dimethylaniline]	> 100 µM

Same assay, conditions: rat, gh3-tre-luc cells, AC50 (uM) modified / 1000, Tox21_110001=Tox21_300811; viability, 1 nM T3 present, 24 h

SMILES	CC50 at 24 h
CCOP(=S)(OCC)SCn1c(=O)oc2cc(Cl)ccc21 [Phosalone]	80.4 µM

Same assay, conditions: rat, gh3-tre-luc cells, AC50 (uM) modified / 1000, Tox21_110001=Tox21_301156; viability, 1 nM T3 present, 24 h

SMILES	CC50 at 24 h
CNC(=O)O/N=C(\SC)C(=O)N(C)C [Oxamyl]	> 90 µM

Same assay, conditions: rat, gh3-tre-luc cells, AC50 (uM) modified / 1000, Tox21_110001=Tox21_301360; viability, 1 nM T3 present, 24 h

SMILES	CC50 at 24 h
CON(C)C(=O)Nc1ccc(Cl)cc1 [Monolinuron]	> 90 µM

Same assay, conditions: rat, gh3-tre-luc cells, AC50 (uM) modified / 1000, Tox21_110001=Tox21_301664; viability, 1 nM T3 present, 24 h

SMILES	CC50 at 24 h
CSc1ccc(C(=O)C(C)(C)N2CCOCC2)cc1 [2-Methyl-4'-(methylthio)-2-morpholinopropiophenone]	> 90 µM

Same assay, conditions: rat, gh3-tre-luc cells, AC50 (uM) modified / 1000, Tox21_110001=Tox21_303039; viability, 1 nM T3 present, 24 h

SMILES	CC50 at 24 h
COc1ccc(N)cc1 [4-Methoxyaniline]	> 100 µM

Same assay, conditions: rat, gh3-tre-luc cells, AC50 (uM) modified / 1000, Tox21_110001=Tox21_400081; viability, 1 nM T3 present, 24 h

SMILES	CC50 at 24 h
CCOP(=O)(O)N(c1ccc(SC)c(C)c1)C(C)C [Fenamiphos]	> 90 µM
